Experimental data from ChEMBL document CHEMBL1201862, “PubChem BioAssay data set” (2004).
Activity calls are given as the source filed them. Rule as the data show it: actives have a measured IC50 and inactives only a lower limit.

Molecular target: Envelope glycoprotein gp160 (Human immunodeficiency virus 1, UniProt Q6QLK5)
Test: inhibitors of HIV fusion peptide binding, primary screen, biochemical, uHTS, fluorescence dequenching (AID 1986)

Chain of Envelope glycoprotein gp160 (Q6QLK5 whole entry, the tested form may be a part): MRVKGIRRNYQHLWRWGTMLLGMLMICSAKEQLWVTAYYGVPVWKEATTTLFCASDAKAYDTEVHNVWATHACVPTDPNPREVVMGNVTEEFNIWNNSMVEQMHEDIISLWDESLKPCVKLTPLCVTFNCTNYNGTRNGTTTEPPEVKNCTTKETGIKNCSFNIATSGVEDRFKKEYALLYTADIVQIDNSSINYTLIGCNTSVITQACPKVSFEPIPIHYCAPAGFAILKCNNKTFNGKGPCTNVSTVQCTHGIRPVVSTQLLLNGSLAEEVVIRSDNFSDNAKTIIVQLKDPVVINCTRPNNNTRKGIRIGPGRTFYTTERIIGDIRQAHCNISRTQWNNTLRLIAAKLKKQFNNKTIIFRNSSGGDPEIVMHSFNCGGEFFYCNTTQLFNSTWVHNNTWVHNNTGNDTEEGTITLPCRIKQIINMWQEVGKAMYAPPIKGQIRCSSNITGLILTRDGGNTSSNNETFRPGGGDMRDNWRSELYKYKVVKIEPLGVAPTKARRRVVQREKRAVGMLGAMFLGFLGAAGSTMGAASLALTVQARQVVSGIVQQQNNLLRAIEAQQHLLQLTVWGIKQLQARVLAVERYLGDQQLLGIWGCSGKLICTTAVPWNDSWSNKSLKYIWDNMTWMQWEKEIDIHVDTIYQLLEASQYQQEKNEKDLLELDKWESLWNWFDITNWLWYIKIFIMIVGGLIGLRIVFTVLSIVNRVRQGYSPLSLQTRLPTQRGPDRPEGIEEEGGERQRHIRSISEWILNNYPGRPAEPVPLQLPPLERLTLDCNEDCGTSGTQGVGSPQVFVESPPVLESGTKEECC

SMILES | IC50
O=C(O)c1cc(N/N=C/c2ccc(-c3ccccc3)cc2)ccc1Cl | 16.1 µM (active)
N#Cc1c(O)nc(SCc2cccc(Cl)c2)nc1-c1ccccc1 | 24.8 µM (active)
